Data: US20200393397A1, “DEVICE FOR PERFORMING ELECTRICAL MEASUREMENTS” (Mimetas B.V., priority 2018, published 2020)

Test system: Caco-2 tubules
Assay: TEER measurement of Caco-2 tubules in 2-lane Organoplate during staurosporine exposure
Format: cell-based, human
Procedure: Day 0: Collagen-1 gel was injected into one of the channels (gel channel) of a 2-lane Organoplate. After curing of the gel, Caco-2 cells (Sigma, human colon carcinoma cells) in culture medium were seeded in the other channel (perfusion channel) and allowed to proliferate. Culture medium was refreshed daily. […] Following this protocol, 40 chips, comprising a gel channel and a perfusion channel separated by a phaseguide, were seeded with Caco-2 cells, meaning that 40 tubules were grown simultaneously in a single 2-lane Organoplate. The method of culturing cells in this system is similar to the one described by Trietsch et al (Nature Communications, volume 8, Article number: 262(2017), doi:10.1038/s41467-017-00259-3).
A TEER measurement was performed daily at days 1 to 11. To this end, gold plated electrodes were inserted into the access wells of the gel and perfusion channel. For 5 to 10 seconds per chip, impedance spectra were recorded at frequencies ranging logarithmically from 10 Hz to 1 MHz.
At day 5, the 40 Caco-2 tubules were exposed to different concentrations of staurosporine (Sigma, S4400) for 12 hours.

SMILES: CN[C@@H]1C[C@H]2O[C@@](C)([C@@H]1OC)n1c3ccccc3c3c4c(c5c6ccccc6n2c5c31)C(=O)NC4 [staurosporine]
- effect on the TEER (day 5, concentration of 47 nM, 12 hours exposure (FIG. 8)): an effect on the TEER can be observed
- effect on the TEER values (day 5, exposure to different concentrations for 12 hours (FIG. 8)): concentration dependent effect
